# From ChEMBL document CHEMBL1201862, “PubChem BioAssay data set” (2004)
# Activity calls are given as the source filed them. Non-standard residues stand in square brackets, D forms with d. Residues, ends and D or L forms follow the SMILES beside them.
# Columns and labels:
# [1] = luciferase reporter signal suppression in cells – H4 neuroglioma cells, luminescence, dose response (AID 1990); format: functional, cell-based
# [2] = tested on: HEK293; experiment: inhibition of NOD1-driven NF-kB reporter – cell-based, luminescence, uHTS, primary screen (AID 1578); format: functional; conditions: Homo sapiens
# [3] = tested on: HEK293; experiment: cells; format: functional, cell-based; conditions: Homo sapiens
# [4] = Luminescence Cell-Based Dose Response HTS to Identify Inhibitors of 5'UTR Stem-Loop Driven Prion Protein mRNA Translation in H4 Neuroglioblastoma Cells. [Related pubchem assays: 1827 (Project Summary), 1813 (Primary HTS)]; format: functional
# [5] = molecular target: T1, Heat shock factor protein 1 (Mus musculus, UniProt P38532); experiment: decrease of HSF1-responsive luciferase luminescence – cell-based, NIH3T3, dose retest, confirmation (AID 2382); format: functional;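 also: NIH3T3 fibroblasts with HSF1-driven luciferase reporter stressed by proteasome inhibitor MG132; luminescence from HSF1-driven luciferase expression after 8 hours of MG132 stress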
# T1 sequence (P38532 whole entry): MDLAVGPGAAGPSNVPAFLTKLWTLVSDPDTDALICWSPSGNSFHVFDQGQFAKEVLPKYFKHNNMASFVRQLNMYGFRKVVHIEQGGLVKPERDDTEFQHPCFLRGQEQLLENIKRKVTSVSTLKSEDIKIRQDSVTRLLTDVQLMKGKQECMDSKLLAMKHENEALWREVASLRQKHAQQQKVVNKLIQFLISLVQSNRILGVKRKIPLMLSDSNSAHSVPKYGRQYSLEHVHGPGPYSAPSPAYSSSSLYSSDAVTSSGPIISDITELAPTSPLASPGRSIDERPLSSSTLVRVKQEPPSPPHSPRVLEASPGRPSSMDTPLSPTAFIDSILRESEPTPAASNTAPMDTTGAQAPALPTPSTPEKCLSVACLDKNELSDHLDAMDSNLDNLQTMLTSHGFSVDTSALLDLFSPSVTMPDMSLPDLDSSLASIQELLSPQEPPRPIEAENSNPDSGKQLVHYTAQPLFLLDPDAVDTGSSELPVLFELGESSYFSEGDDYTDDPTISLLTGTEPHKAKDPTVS
# [6] = alpha-synuclein stem-loop luciferase translation blockers – H4 neuroglioma cells, luminescence, confirmation (AID 1988); format: functional, cell-based
# [7] = tested on: HEK293; experiment: cells; format: functional, cell-based; conditions: Homo sapiens; remark: listed apart in the source
# [8] = tested on: HEK293; experiment: NOD2 signaling inhibitors in MDP-stimulated cells, cell-based, uHTS, luminescence (AID 2001); format: functional; conditions: Homo sapiens
# [9] = molecular target: Tumor necrosis factor (Homo sapiens, UniProt P01375); experiment: analog potency on TNFa NF-kB signaling – cell-based, revised, SAR follow-up (AID 2337); format: functional
# Sequence of Tumor necrosis factor (P01375 whole entry, the tested form may be a part): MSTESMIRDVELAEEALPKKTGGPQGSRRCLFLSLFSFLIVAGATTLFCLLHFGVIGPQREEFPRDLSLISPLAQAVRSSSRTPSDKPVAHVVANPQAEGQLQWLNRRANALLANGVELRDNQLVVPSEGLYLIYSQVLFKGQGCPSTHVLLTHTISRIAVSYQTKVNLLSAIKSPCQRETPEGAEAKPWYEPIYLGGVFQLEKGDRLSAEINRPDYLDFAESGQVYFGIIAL
# [10] = molecular target: T2, Nucleotide-binding oligomerization domain-containing protein 1 (Homo sapiens, UniProt Q9Y239); experiment: blockers of NOD1 pathway activity – revised, SAR follow-up (AID 2333); format: functional
# T2 sequence (Q9Y239 whole entry): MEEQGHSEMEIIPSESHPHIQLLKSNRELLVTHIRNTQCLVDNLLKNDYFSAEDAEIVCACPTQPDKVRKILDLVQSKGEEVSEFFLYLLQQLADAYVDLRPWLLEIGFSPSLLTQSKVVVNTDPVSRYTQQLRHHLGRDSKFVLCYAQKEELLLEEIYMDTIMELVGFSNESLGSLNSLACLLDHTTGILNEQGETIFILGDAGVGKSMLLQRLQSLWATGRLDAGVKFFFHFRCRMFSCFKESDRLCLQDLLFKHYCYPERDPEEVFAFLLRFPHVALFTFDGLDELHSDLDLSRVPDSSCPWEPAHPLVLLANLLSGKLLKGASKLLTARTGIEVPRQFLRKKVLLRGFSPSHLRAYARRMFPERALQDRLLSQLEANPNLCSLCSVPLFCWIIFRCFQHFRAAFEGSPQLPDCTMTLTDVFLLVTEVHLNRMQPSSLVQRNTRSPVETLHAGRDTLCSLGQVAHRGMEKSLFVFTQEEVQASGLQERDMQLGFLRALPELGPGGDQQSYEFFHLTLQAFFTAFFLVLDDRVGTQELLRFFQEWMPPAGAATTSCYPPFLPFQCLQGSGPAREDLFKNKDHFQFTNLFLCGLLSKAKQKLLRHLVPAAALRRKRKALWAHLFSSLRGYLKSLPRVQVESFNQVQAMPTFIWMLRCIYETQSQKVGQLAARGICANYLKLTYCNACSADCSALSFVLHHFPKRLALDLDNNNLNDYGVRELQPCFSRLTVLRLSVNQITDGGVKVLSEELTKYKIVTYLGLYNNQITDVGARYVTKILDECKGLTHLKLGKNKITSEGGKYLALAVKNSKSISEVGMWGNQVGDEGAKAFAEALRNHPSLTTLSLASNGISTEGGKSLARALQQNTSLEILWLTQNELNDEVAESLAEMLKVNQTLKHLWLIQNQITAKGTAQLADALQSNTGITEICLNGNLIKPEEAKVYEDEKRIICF
# [11] = tested on: Jurkat; experiment: blockers of NF-kB activation in T cells – Jurkat, luciferase reporter, luminescence, B- and T-cell, dose response (AID 489004); format: functional, cell-based; conditions: Homo sapiens;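 also: NF-kB luciferase reporter Jurkat cells stimulated with PMA plus ionomycin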
# [12] = HEK-293T viability loss, compound-treated – cell-based, uHTS hits, cytotoxicity control for B/T-cell NF-kB inhibitor project, dose response (AID 489019); format: functional;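 also: IC50 reflects cytotoxicity as loss of cell viability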
# [13] = reduction of Shn3 3'UTR-driven luciferase in osteoblasts – cell-based, Clone20 osteoblasts, firefly luciferase, cherry-picked, dose response (AID 624132); format: functional;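 also: firefly luciferase luminescence from reporter carrying the Shn3 3'UTR in osteoblasts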
# [14] = loss of viability in HepG2 cells – cell-based, CellTiter-Glo, cherry-picked, cytotoxicity control for Shn3 inhibitor project, dose response (AID 624134); format: functional
# [15] = non-specific 3'UTR reporter inhibition in Clone20-Shn3RL – cell-based, Renilla luciferase, cherry-picked, counter-screen for Shn3 inhibitor project, dose response (AID 624133); format: functional
# [16] = tested on: HEK293; experiment: cells; conditions: Homo sapiens
# [17] = molecular target: Beta-galactosidase (Escherichia coli, UniProt Q8VNN2); experiment: PubChem AID 485352; format: functional
# Sequence of Beta-galactosidase (Q8VNN2 whole entry): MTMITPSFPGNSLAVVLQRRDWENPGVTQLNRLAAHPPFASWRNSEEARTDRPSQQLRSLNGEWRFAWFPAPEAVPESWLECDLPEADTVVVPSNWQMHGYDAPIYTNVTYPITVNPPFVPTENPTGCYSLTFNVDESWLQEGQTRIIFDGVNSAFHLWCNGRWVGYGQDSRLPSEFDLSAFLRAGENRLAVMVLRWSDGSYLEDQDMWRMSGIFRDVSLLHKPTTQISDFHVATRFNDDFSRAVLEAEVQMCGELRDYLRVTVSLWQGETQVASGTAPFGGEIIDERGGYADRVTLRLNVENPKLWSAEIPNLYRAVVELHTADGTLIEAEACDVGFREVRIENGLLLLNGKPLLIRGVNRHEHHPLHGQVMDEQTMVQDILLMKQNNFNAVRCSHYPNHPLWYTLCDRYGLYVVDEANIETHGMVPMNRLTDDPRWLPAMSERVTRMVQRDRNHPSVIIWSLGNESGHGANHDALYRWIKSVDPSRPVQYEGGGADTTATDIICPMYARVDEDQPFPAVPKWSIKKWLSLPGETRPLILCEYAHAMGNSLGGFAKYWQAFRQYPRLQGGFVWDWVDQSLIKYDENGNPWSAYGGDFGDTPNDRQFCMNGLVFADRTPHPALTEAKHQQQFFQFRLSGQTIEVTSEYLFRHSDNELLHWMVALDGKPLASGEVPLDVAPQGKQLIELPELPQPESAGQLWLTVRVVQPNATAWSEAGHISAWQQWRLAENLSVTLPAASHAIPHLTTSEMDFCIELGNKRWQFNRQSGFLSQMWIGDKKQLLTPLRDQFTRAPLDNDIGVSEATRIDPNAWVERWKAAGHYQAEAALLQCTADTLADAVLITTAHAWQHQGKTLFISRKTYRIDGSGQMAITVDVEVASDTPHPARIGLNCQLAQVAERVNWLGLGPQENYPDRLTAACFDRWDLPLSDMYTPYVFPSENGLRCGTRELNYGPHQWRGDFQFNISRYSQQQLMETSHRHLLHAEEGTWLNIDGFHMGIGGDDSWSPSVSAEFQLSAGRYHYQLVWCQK
# [18] = molecular target: T3, Type-1 angiotensin II receptor (Homo sapiens, UniProt P30556); experiment: antagonism of angiotensin II type 1 receptor – cell-based, uHTS hits, selectivity assay for APJ receptor antagonist project, dose response (AID 463214); format: functional;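 also: antagonist potency against angiotensin II stimulated AT1 response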
# T3 sequence (P30556 whole entry): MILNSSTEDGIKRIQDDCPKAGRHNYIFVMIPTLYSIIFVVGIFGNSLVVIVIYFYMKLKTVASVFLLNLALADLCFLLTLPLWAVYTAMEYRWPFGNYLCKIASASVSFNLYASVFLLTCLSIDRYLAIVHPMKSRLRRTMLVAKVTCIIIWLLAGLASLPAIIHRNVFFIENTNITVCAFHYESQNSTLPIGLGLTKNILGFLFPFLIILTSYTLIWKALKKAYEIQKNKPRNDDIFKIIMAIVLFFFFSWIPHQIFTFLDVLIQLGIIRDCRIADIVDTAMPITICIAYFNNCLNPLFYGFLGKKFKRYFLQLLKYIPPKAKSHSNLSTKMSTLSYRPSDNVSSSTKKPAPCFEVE
# [19] = molecular target: T4, Tyrosine-protein phosphatase non-receptor type 11 (Homo sapiens, UniProt Q06124); experiment: PTPN11 enzyme inhibitors – biochemical, selectivity assay for STEP inhibitor project, dose response (AID 602367); format: functional; conditions: read-out: IC50_Mean
# T4 sequence (Q06124 whole entry): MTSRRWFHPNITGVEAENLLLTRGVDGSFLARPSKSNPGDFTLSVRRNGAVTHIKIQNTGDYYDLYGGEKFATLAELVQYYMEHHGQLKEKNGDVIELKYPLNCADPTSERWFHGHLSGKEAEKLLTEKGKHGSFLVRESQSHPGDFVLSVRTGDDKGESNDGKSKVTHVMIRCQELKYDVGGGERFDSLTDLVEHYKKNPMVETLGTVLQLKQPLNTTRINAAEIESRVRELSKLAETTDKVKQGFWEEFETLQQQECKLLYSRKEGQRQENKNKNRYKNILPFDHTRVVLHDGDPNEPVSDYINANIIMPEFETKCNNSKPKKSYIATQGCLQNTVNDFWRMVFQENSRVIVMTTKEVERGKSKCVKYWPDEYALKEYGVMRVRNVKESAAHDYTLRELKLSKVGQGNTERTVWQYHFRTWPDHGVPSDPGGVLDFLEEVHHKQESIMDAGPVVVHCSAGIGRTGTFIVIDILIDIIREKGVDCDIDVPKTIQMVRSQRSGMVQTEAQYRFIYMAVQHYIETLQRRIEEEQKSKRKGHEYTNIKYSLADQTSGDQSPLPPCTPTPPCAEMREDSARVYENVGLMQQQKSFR
# [20] = molecular target: T5, Tyrosine-protein phosphatase non-receptor type 5 (Homo sapiens, UniProt P54829); experiment: PTPN5 enzyme inhibition – biochemical, fluorescence intensity, uHTS hits, confirmation (AID 602372); format: functional; conditions: read-out: IC50_Mean
# T5 sequence (P54829 whole entry): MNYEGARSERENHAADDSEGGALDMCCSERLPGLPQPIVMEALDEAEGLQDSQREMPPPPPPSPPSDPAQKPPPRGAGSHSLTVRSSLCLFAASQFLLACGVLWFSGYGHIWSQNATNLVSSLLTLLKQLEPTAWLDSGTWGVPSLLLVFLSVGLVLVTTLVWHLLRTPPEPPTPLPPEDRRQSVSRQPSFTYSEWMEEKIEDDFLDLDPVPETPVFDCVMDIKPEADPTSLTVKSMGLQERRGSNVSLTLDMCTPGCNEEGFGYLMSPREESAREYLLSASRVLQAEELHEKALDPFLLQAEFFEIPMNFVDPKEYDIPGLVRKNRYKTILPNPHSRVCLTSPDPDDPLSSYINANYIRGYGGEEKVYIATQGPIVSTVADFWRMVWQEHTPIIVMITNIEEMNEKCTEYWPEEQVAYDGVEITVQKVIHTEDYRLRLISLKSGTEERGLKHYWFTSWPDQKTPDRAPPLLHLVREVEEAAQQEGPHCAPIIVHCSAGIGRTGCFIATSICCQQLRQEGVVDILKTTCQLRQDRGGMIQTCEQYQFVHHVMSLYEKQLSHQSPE
# [21] = molecular target: Dual specificity protein phosphatase 3 (Homo sapiens, UniProt P51452); experiment: VHR phosphatase inhibition, dose response, selectivity assay for STEP inhibitor project, biochemical (AID 602374); format: functional; conditions: read-out: IC50_Mean
# Sequence of Dual specificity protein phosphatase 3 (P51452 whole entry): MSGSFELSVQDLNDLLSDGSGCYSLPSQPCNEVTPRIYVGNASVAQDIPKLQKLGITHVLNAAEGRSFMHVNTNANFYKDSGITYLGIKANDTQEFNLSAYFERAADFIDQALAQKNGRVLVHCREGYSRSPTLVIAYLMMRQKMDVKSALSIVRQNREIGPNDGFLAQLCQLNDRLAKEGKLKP
# [22] = tested on: INS1; experiment: INS-1E survival protection against cytokine death – cell-based, luminescence, retest, dose response (AID 449756); format: functional; conditions: Rattus norvegicus;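 also: cell death triggered by IL-1 beta plus TNF-alpha plus IFN-gamma mixture; protective hits raise ATP signal compared with cytokine alone wells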
# [23] = tested on: P388/ADR; experiment: cells; format: functional; conditions: Mus musculus
# [24] = tested on: SN12K1; experiment: cells; format: functional; conditions: Homo sapiens
# [25] = tested on: P388; experiment: cells; format: functional; conditions: Mus musculus
structure (smiles),measurement,setting,value
CC(Nc1ncnc2sccc12)c1ccccc1 (stereo unspecified),EC50,[1],> 120 µM (not active)
same,EC50,[2],1.36 µM (active)
same,IC50,[3],2.67 µM (active)
same,EC50,[4],> 120 µM (not active)
same,EC50,[5],> 195 µM (not active)
same,EC50,[6],> 120 µM (not active)
same,IC50,[7],13.5 µM (active)
same,IC50,[8],3.62 µM (active)
same,IC50,[9],2.35 µM (active)
same,IC50,[10],1.55 µM (active)
same,IC50,[11],> 80 µM (inactive)
same,IC50,[12],> 80 µM (inactive)
same,AC50,[13],0.505 µM (active)
same,AC50,[14],1.71 µM (active)
same,AC50,[15],0.606 µM (active)
same,IC50,[16],> 20 µM (inactive)
CC(=O)Nc1ccc(NC(=O)c2ccc(CN3CCc4ccccc4C3)cc2)cc1,IC50,[9],> 20 µM (inactive)
same,IC50,[10],> 20 µM (inactive)
same,IC50,[16],> 20 µM (inactive)
Cc1ccc(NNC(=O)c2c(C)noc2C)cc1Cl,EC50,[17],> 40 µM (inactive)
same,IC50,[18],5.22 µM (active)
CCCCN(CC)Cc1ccc(CN=C(S)Nc2c(C)cc(C)cc2C)o1,IC50,[19],4.52 µM (active)
same,IC50,[20],45.9 µM (inactive)
same,IC50,[21],2.45 µM (active)
Cc1ccc(C(=O)COC(=O)c2ccncc2)cc1[N+](=O)[O-],EC50,[17],> 40 µM (inactive)
same,IC50,[18],20 µM (active)
NNc1nc(-c2ccccc2)cc(-c2ccccc2O)n1,EC50,[17],> 40 µM (inactive)
same,IC50,[18],4.2 µM (active)
same,AC50,[22],1.7 µM (active)
Cc1cc(C)nc(NNS(=O)(=O)c2ccc(Cl)cc2)n1,EC50,[17],> 40 µM (inactive)
same,IC50,[18],> 40 µM (not active)
C=C1C(O)[C@@H]2O[C@]3(CC[C@H](/C=C/C(C)[C@@H]4CC(C)=CC5(O[C@H](C[C@@](C)(O)C(=O)O)CCC5O)O4)O3)CC[C@H]2O[C@@H]1C(O)CC(C)[C@H]1OC2(CCCCO2)CCC1C (stereo partly specified),IC50,[11],0.17 µM (active)
same,IC50,[12],> 80 µM (inactive)
same,AC50,[22],< 0.195 µM (active)
CN(C)CCNc1c2ccccc2c2c3c(cccc13)C(=O)N(CCN(C)C)C2=O,GI50,[23],0.218 µM (active)
same,GI50,[24],0.31 µM (active)
same,GI50,[25],0.0723 µM (active)
CC1NC(=O)CC(c2ccccc2)N(N=O)C1c1ccccc1 (stereo unspecified),GI50,[23],15.3 µM (inactive)
same,GI50,[24],21.6 µM (inactive)
same,GI50,[25],10.3 µM (inactive)
CCCCCCCCCCCC[C@@H](O)[C@H]1CC[C@H]([C@H](O)CCCC[C@H](O)CCCCC[C@@H](O)CC2=C[C@H](C)OC2=O)O1,GI50,[23],0.106 µM (active)
same,GI50,[24],< 0.01 µM (active)
same,GI50,[25],< 0.0366 µM (active)
CC(C)C[C@H](NC(=O)[C@H](CC(C)C)NC(=O)[C@@H](Cc1c[nH]c2ccccc12)NC(=O)[C@H](Cc1ccccc1)NC(=O)[C@@H](Cc1c[nH]c2ccccc12)NC(=O)[C@H](CCC(N)=O)NC(=O)[C@H](CCC(N)=O)NC(=O)[C@H]1CCCN1C(=O)[C@@H](N)CCCCN)C(N)=O (H-K[dP]QQ[dW]F[dW]LL-NH2),GI50,[23],> 100 µM (inactive)
same,GI50,[24],> 100 µM (inactive)
same,GI50,[25],> 100 µM (inactive)
